Biological target: T1, α-glucosidase GAM1p (Schwanniomyces occidentalis, UniProt Q401B1, S845A)
T1 construct: gene GAM1; full-length gene with own signal peptide of 22 residues (960 aa precursor), no tag (native stop codon), AOX1 promoter vector pIB4, secreted by Komagataella phaffii GS115; glycosylated, about 143 kDa; concentrated on 50-kDa membrane
Assay: HPLC-PAD, MS and NMR of glucosylated products
Format: biochemical
Settings: glucosyl acceptor; 20 mM piceid, 300 g/L maltose as donor, 20% DMSO, sodium acetate pH 4.5, 37 °C

T1 sequence (Q401B1 entry or part of it S845A): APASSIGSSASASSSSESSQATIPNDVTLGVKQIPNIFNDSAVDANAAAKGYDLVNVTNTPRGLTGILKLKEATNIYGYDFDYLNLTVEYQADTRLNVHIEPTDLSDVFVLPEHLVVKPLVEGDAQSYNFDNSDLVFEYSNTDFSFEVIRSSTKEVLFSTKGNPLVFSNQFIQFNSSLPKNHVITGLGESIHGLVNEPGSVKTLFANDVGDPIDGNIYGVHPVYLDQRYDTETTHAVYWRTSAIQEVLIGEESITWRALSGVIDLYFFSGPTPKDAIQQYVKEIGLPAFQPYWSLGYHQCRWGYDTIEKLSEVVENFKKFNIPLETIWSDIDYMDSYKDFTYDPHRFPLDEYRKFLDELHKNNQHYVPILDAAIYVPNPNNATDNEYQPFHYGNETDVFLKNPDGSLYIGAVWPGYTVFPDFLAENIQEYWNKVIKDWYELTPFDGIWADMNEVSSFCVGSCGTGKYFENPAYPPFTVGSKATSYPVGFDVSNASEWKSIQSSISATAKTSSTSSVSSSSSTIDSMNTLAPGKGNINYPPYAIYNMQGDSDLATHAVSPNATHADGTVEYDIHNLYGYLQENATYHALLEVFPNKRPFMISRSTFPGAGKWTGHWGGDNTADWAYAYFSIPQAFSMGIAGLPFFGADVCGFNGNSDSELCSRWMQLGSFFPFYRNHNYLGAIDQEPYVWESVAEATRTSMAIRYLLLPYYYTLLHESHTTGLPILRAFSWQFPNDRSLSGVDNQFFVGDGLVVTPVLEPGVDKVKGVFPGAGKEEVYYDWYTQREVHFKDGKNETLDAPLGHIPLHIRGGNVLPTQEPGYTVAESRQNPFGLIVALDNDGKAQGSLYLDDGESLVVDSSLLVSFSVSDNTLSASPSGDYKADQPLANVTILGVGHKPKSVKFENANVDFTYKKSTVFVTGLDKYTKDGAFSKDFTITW

OC[C@H]1O[C@@H](Oc2cc(O)cc(/C=C/c3ccc(O)cc3)c2)[C@H](O)[C@@H](O)[C@@H]1O (mixture of isomers) [piceid]
HPLC-PAD, MS and NMR of glucosylated products: GAM1p was only able to glycosylate piceid (polydatin)

— paper PMC11330417, “Insights into the transglucosylation activity of α-glucosidase from Schwanniomyces occidentalis” (Applied Microbiology and Biotechnology, 2024)
